Test results published in patent US8153651B2, “Amide derivatives as ion-channel ligands and pharmaceutical compositions and methods of using the same” (Evotec AG, priority 2007, dated 2012).
Read-outs that look alike come from different tables or passages of the source.

Target: T1, hVR1 (Homo sapiens, UniProt Q8NER1)
T1 construct: expressed in transfected cells; host or cells: T-REx System cell line (Invitrogen Cat# R710-07), called 'human keratinocyte cell line' and 'HEK 293 cells'; vector pcDNA5/TO (Invitrogen Cat# V1033-20); expression induced with doxycycline
Assay: Calcium uptake assay (FLIPR), inhibition of agonist-induced calcium influx in cells expressing hVR1
Format: cell-based
Settings: cells expressing human VR1, 2 or 30 min pre-incubation
Protocol: The syntheses of these representative compounds were carried out in accordance with the methods set forth above, and activity of the compounds was measured by percent inhibition in a calcium uptake assay, the details of which are described below.
Functional activity of compounds against the VR1 receptor was determined by measuring changes in intracellular calcium in HEK 293 cells expressing hVR1. Compounds were examined for their ability to inhibit agonist-induced calcium influx. Relative levels of [Ca^2+] were monitored in a 96-well format using a calcium-sensitive fluorescence dye and a FLIPR TETRA, Molecular Devices.
Cells that express high levels of VR1 were obtained by generation of a cell line from human keratinocytes with heterologous expression of VR1 under control of an inducible promoter. Specifically, cells expressing human VR1 under the control of the human cytomegalovirus immediate-early (CMV) promoter and two tetracycline operator 2 (TetO2) sites were made using the T-REx System (Invitrogen, Carlsbad, Calif., USA). Details and methods concerning this system are published (Hum. Gene Ther. 9, pp. 1939-1950, 1998; Annu. Rev. Microbiol. 48, pp. 345-369, 1994; Mol. Biol. 169, pp. 707-721, 1983). Human VR1 was subcloned into the T-REx System pcDNA5/TO vector (Invitrogen Cat# V1033-20) which was transfected into the T-REx System human keratinocyte cell line (Invitrogen Cat# R710-07) from which a stable cell line was established which expresses VR1 after induction by exposure to tetracycline or doxycycline (Hum. Gene Ther. 9, pp. 1939-1950, 1998; instructions that come with purchase of products noted above). Cells were maintained in a CO2 incubator (5% CO2) at 37° C. in culture medium containing DMEM with phenol red (Mediatech Cat #: 15-017-CV) supplemented with 10% heat-inactivated Fetal Bovine Serum, 5% Penicillin-streptomycin (Mediatech Cat #: 30-002-CI), 5% Glutamax® (L-Alanyl-L-Glutamine, Mediateach Cat #: 25-015-CI), 200 μg/ml hygromycin (Mediatech #:30-240-CR), 0.5 μg/ml blasticidin (Invitrogen #46-1120)).
For assay preparation, cells expressing human VR1 as described above were plated in 96-well plates (Becton Dickinson [BD] poly-D-lysine coated 96-well plates, cat#356692) at 55,000 cells per well in culture media (described above) that also contained 1 ug/ml doxycycline. Plated cells were then placed in an incubator (5% CO2) and incubated for 20-26 hours at 37° C., until the cells had grown to near confluency. Media was then aspirated from cells and 50 uL of dye-containing buffer (from Molecular Devices FLIPR Calcuim 4 Assay kit, cat# R8141) was added to each well. Cells were then left in the dark at room temperature for 1.5-2 hours. Cell plates were then placed in the FLIPR TETRA (Molecular Devices, CA, USA). Test compounds and agonists were added to wells using the liquid handling capability of the FLIPR TETRA. Calcuim responses of the cells were monitored by fluorescence readout of dye signal. Test compounds in saline (130 mM NaCl, 17 g/L sucrose, 1.8 g/L glucose, 8.8 mM HEPES, 3 mM KCl, 0.60 mM MgCl, 1.0 mM CaCl2; adjust to pH 7.4 using NaOH; 0.03% BSA added on the day of the experiment), or vehicle control in saline, were pre-incubated at the desired final concentrations in the dark at room temperature for 2 or 30 minutes with cells already containing the above mentioned dye buffer (dye solution was diluted 1:1 in culture wells with saline containing 2× the final concentration of test compound). […] Another agonist was protons via a low pH solution (saline solution described above plus 10 mM citric acid buffered to pH 5.7 with HCl instead of buffering to a neutral pH with NaOH as done for normal saline). Compounds were tested at various concentration ranges, depending upon potency of compound.

[1] = IC50 (nM) Capsaicin, agonist capsaicin at 10 nM or its EC50
[2] = agonist protons, low pH solution pH 5.7, read-out: IC50 (nM) Low pH
[3] = read-out: IC50 (nM) Capsaicin, agonist capsaicin at 10 nM or its EC50

T1 sequence (Q8NER1 whole entry): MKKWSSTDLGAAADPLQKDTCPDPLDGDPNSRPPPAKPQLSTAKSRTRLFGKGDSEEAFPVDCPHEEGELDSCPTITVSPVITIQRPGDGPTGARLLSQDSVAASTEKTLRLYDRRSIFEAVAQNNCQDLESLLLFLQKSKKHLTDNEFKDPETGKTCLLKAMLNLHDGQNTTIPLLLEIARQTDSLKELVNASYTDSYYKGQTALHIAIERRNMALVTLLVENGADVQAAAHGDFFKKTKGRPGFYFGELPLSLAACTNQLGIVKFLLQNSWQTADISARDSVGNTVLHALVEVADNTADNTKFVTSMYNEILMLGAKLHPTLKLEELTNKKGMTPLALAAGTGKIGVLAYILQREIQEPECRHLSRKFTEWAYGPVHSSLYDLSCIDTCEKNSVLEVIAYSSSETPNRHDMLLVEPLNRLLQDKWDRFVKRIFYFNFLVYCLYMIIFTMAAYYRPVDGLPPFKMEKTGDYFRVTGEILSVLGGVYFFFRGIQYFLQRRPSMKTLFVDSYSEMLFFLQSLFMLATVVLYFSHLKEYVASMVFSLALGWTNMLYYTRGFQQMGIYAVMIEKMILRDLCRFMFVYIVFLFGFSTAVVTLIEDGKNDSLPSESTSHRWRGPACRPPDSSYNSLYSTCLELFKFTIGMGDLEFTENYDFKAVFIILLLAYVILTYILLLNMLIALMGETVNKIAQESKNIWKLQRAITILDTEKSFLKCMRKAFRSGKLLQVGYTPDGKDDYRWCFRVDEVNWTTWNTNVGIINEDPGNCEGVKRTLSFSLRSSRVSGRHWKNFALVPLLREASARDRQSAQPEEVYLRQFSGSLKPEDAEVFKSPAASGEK

| IC50 [1] | IC50 [2] | IC50 [3] | Compound |
| --- | --- | --- | --- |
| 101 to 500 nM | 101 to 500 nM |  | COC(C)(C)c1ccc2c(n1)CC[C@@H](C(=O)N[C@H](C)c1cc(C)c(NS(C)(=O)=O)cc1F)C2 (single isomer, unassigned) [Example 14] |
| < 100 nM | < 100 nM |  | COC(C)(C)c1ccc2c(n1)CC[C@H](C(=O)N[C@H](C)c1cc(C)c(NS(C)(=O)=O)cc1F)C2 (single isomer, unassigned) [Example 15] |
| < 100 nM | 101 to 500 nM |  | Cc1cc([C@@H](C)NC(=O)C2=Cc3ccccc3OC2)c(F)cc1NS(C)(=O)=O [Example 1, (R)—N-(1-(2-Fluoro-5-methyl-4-(methylsulfonamido)phenyl)ethyl)-2h-chromene-3-carboxamide] |
| 101 to 500 nM | > 1000 nM |  | Cc1cc([C@@H](C)NC(=O)C2CCc3ccccc3O2)c(F)cc1NS(C)(=O)=O (some centres unmarked) [Example 2] |
| < 100 nM | 101 to 500 nM |  | Cc1cc([C@@H](C)NC(=O)C2CCc3ccccc3C2)c(F)cc1NS(C)(=O)=O (some centres unmarked) [Example 3, 1,2,3,4-Tetrahydronaphthalene-2-carboxylic acid f(r)-1-(2-fluoro-4-methanesulfonylamino-5-methylphenyl)ethylamide] |
| < 100 nM | < 100 nM |  | Cc1cc([C@@H](C)NC(=O)C2=Cc3cc(Cl)ccc3OC2)c(F)cc1NS(C)(=O)=O [Example 4] |
| 101 to 500 nM | > 1000 nM |  | COc1ccc2c(c1)CCC(C(=O)N[C@H](C)c1cc(C)c(NS(C)(=O)=O)cc1F)C2C (some centres unmarked) [Example 5] |
| < 100 nM | < 100 nM |  | Cc1cc([C@@H](C)NC(=O)C2COc3ccc(Cl)cc3C2)c(F)cc1NS(C)(=O)=O (some centres unmarked) [Example 6] |
| < 100 nM | < 100 nM |  | Cc1cc([C@@H](C)NC(=O)C2CN(C)c3cc(C(F)(F)F)ccc3O2)c(F)cc1NS(C)(=O)=O (some centres unmarked) [Example 7] |
| < 100 nM |  |  | Cc1cc([C@@H](C)NC(=O)C2CCc3nc(C(C)(C)C(F)(F)F)ccc3C2)c(F)cc1NS(C)(=O)=O (stereo partly drawn) [Example 8, N—((R)-1-(2-Fluoro-5-methyl-4-(methylsulfonamido)phenyl)ethyl)-2-(1,1,1-trifluoro-2-methylpropan-2-yl)-5,6,7,8-tetrahydroquinoline-6-carboxamide] |
|  | < 100 nM |  | Cc1cc([C@@H](C)NC(=O)[C@@H]2CCc3nc(C(C)(C)C(F)(F)F)ccc3C2)c(F)cc1NS(C)(=O)=O [Example 9, (R)—N—((R)-1-(2-Fluoro-5-methyl-4-(methylsulfonamido)phenyl)ethyl)-2-(1,1,1-trifluoro-2-methylpropan-2-yl)-5,6,7,8-tetrahydroquinoline-6-carboxamide] |
|  |  | < 100 nM | Cc1cc([C@@H](C)NC(=O)[C@H]2CCc3nc(C(C)(C)C(F)(F)F)ccc3C2)c(F)cc1NS(C)(=O)=O [Example 10, (S)—N—((R)-1-(2-Fluoro-5-methyl-4-(methylsulfonamido)phenyl)ethyl)-2-(1,1,1-trifluoro-2-methylpropan-2-yl)-5,6,7,8-tetrahydroquinoline-6-carboxamide] |
| 101 to 500 nM |  |  | COc1ccc2c(c1)CCC(C(=O)NC(C)c1cc(C)c(NS(C)(=O)=O)cc1F)C2 (centres unmarked) [Example 11, 6-Methoxy-1,2,3,4-tetrahydro-naphthalene-2-carboxylic acid [1-(2-fluoro-4-methanesulfonylamino-5-methyl-phenyl)-ethyl]-amide] |
| < 100 nM |  |  | Cc1cc([C@@H](C)NC(=O)C2CCc3nc(C(F)(F)F)ccc3C2)c(F)cc1NS(C)(=O)=O (stereo partly drawn) [Example 12, N—((R)-1-(2-Fluoro-5-methyl-4-(methylsulfonamido)phenyl)ethyl)-2-(trifluoromethyl)-5,6,7,8-tetrahydroquinoline-6-carboxamide] |
| 101 to 500 nM |  |  | Cc1cc([C@@H](C)NC(=O)C2CCc3nc(C(C)(C)O)ccc3C2)c(F)cc1NS(C)(=O)=O (stereo partly drawn) [Example 13, N—((R)-1-(2-fluoro-5-methyl-4-(methylsulfonamido)phenyl)ethyl)-2-(2-hydroxypropan-2-yl)-5,6,7,8-tetrahydroquinoline-6-carboxamide] |
| 101 to 500 nM |  |  | Cc1cc([C@@H](C)NC(=O)[C@@H]2COc3cc(C(F)(F)F)ccc3O2)c(F)cc1NS(C)(=O)=O [Example 16, (S)—N—((R)-1-(2-fluoro-5-methyl-4-(methylsulfonamido)phenyl)ethyl)-6-(trifluoromethyl)-2,3-dihydrobenzo[b][1,4]dioxine-2-carboxamide] |
| < 100 nM |  |  | Cc1cc([C@@H](C)NC(=O)[C@H]2COc3ccc(C(F)(F)F)cc3O2)c(F)cc1NS(C)(=O)=O [Example 17, (R)—N—((R)-1-(2-fluoro-5-methyl-4-(methylsulfonamido)phenyl)ethyl)-7-(trifluoromethyl)-2,3-dihydrobenzo[b][1,4]dioxine-2-carboxamide] |
| 101 to 500 nM |  |  | Cc1cc([C@@H](C)NC(=O)[C@@H]2COc3ccc(C(F)(F)F)cc3O2)c(F)cc1NS(C)(=O)=O [Example 19, (S)—N—((R)-1-(2-fluoro-5-methyl-4-(methylsulfonamido)phenyl)ethyl)-7-(trifluoromethyl)-2,3-dihydrobenzo[b][1,4]dioxine-2-carboxamide] |
| 101 to 500 nM |  |  | Cc1cc([C@@H](C)NC(=O)[C@H]2CCc3nc(C4(C)OCCO4)ccc3C2)c(F)cc1NS(C)(=O)=O [Example 20, (S)—N—((R)-1-(2-fluoro-5-methyl-4-(methylsulfonamido)phenyl)ethyl)-2-(2-methyl-1,3-dioxolan-2-yl)-5,6,7,8-tetrahydroquinoline-6-carboxamide] |
| 101 to 500 nM |  |  | Cc1cc([C@@H](C)NC(=O)C2COc3nc(C(F)(F)F)ccc3O2)c(F)cc1NS(C)(=O)=O (stereo partly drawn) [Example 21, 6-trifluoromethyl-2,3-dihydro[1,4]dioxino[2,3-b]pyridine-2-carboxylic acid [(R)-1-(2-fluoro-4-methanesulfonylamino-5-methylphenyl)ethyl]amide] |
| < 100 nM |  |  | C[C@@H](NC(=O)[C@H]1COc2cc(C(F)(F)F)ccc2O1)c1ccc(NS(C)(=O)=O)c(F)c1 [Example 22, (R)-6-Trifluoromethyl-2,3-dihydrobenzo[1,4]dioxine-2-carboxylic acid [(R)-1-(3-fluoro-4-methanesulfonylaminophenyl)ethyl]amide] |
| < 100 nM |  |  | C[C@@H](NC(=O)[C@H]1COc2cc(C(F)(F)F)ccc2O1)c1ccc(NS(C)(=O)=O)c(Cl)c1 [Example 23] |
|  |  | < 100 nM | (R)—N—((R)-1-(2-fluoro-5-methyl-4-(methylsulfonamido)phenyl)ethyl)-6-(trifluoromethyl)-2,3-dihydrobenzo[b][1,4]dioxine-2-carboxamide [Example 18] |
